Results taken from US8178506B2, “Oligomeric compounds and compositions for use in modulation of small non-coding RNAs” (Regulus Therapeutics Inc., priority 2003, dated 2012).
In the oligonucleotide strings, read from the 5' end, every base follows the letter of its sugar. An asterisk marks phosphorothioate; unmarked linkages are phosphodiester. Other units and linkages are bracketed, terminal groups are in braces. A string of capitals states the bases alone. e = 2'-O-(2-methoxyethyl) (MOE); [5mC] = 5-methylcytosine

Experiments:
Type in all cases: cell-based, human
adipocytes = experiment: Triglyceride accumulation assay in adipocytes
aP2 = aP2 mRNA expression in adipocytes (real-time PCR); details: for aP2 mRNA: Table 75
HSL = HSL mRNA expression in adipocytes (real-time PCR)
Glut4 = Glut4 mRNA expression in adipocytes (real-time PCR)
PPARγ = PPARγ mRNA expression in adipocytes (real-time PCR)
[1] = differentiating adipocytes transfected with oligomeric compound, Table 75
[2] = differentiating adipocytes transfected with oligomeric compound
[3] = Table 18, differentiating adipocytes, control = treatment with ISIS 342673
[4] = Table 17, differentiating adipocytes, control = treatment with ISIS 342673

Substance | TG (triglyceride accumulation) (adipocytes; [1]) | aP2 mRNA (aP2; [2]) | HSL mRNA (HSL; [1]) | GLUT4 mRNA (Glut4; [1]) | PPAR gamma mRNA (PPARγ; [1]) | also measured
344343 (AUGCCCUUUCAUCAUUGCACUG; anti-miR; all 2'-MOE, all phosphorothioate, methylation of C and T or U not given here) [compound 344343] | 32 percentage of untreated control (UTC) | 25 percentage of untreated control (UTC) | 22 percentage of untreated control (UTC) | 4 percentage of untreated control (UTC) | 30 percentage of untreated control (UTC) | 
346693 (CCCUCUGGUCAACCAGUCACA; all 2'-MOE, all phosphorothioate, methylation of C and T or U not given here) [compound 346693] | 69 percentage of untreated control (UTC) | 77 percentage of untreated control (UTC) | 66 percentage of untreated control (UTC) | 65 percentage of untreated control (UTC) | 81 percentage of untreated control (UTC) | 
328089 (antisense eA*e[5mC]*eT*eG*eT*eA*eG*eG*eA*eA*eT*eA*eT*eG*eT*eT*eT*eG*eA*eT*eA) [compound 328089] | 67 percentage of untreated control (UTC) | 50 percentage of untreated control (UTC) | 55 percentage of untreated control (UTC) | 59 percentage of untreated control (UTC) | 79 percentage of untreated control (UTC) | 
348116 (UUCGCCCUCUCAACCCAGCUUUU; anti-miR; all 2'-MOE, all phosphorothioate, methylation of C and T or U not given here) [compound 348116] | 43 percentage of untreated control (UTC) | 79 percentage of untreated control (UTC) | 58 percentage of untreated control (UTC) | 48 percentage of untreated control (UTC) | 76 percentage of untreated control (UTC) | 
328109 (antisense eA*eA*eA*eG*eA*eA*eG*eT*eA*eT*eA*eT*eG*e[5mC]*eA*eT*eA*eG*eG*eA*eA) [compound 328109] | 23 percentage of untreated control (UTC) | 68 percentage of untreated control (UTC) | 62 percentage of untreated control (UTC) | 55 percentage of untreated control (UTC) | 69 percentage of untreated control (UTC) | TG (triglyceride accumulation) (adipocytes; [3]): 84.9 percentage of control; AP2 mRNA (aP2; [3]): 84.9 percentage of control; HSL mRNA (HSL; [3]): 86.9 percentage of control; GLUT4 mRNA (Glut4; [3]): 106.6 percentage of control; PPAR gamma mRNA (PPARγ; [3]): 96.1 percentage of control
346685 (GGCGGAACUUAGCCACUGUGAA; all 2'-MOE, all phosphorothioate, methylation of C and T or U not given here) [compound 346685] | 164 percentage of untreated control (UTC) | 181 percentage of untreated control (UTC) | 172 percentage of untreated control (UTC) | 233 percentage of untreated control (UTC) | 138 percentage of untreated control (UTC) | 
341795 (antisense AACCAAUGUGCAGACUACUGUA; all 2'-MOE, all phosphorothioate, methylation of C and T or U not given here) [compound 341795] | 57 percentage of untreated control (UTC) | 76 percentage of untreated control (UTC) | 74 percentage of untreated control (UTC) | 55 percentage of untreated control (UTC) | 74 percentage of untreated control (UTC) | 
348127 (GCAGAACUUAGCCACUGUGAA; all 2'-MOE, all phosphorothioate, methylation of C and T or U not given here) [compound 348127] | 155 percentage of untreated control (UTC) | 185 percentage of untreated control (UTC) | 150 percentage of untreated control (UTC) | 201 percentage of untreated control (UTC) | 130 percentage of untreated control (UTC) | 
328093 (antisense eT*eA*eA*eA*e[5mC]*eA*eT*e[5mC]*eA*e[5mC]*eT*eG*e[5mC]*eA*eA*eG*eT*e[5mC]*eT*eT*eA) [compound 328093] |  |  |  |  |  | TG (triglyceride accumulation) (adipocytes; [2]): 59 percentage of untreated control (UTC); AP2 mRNA (aP2; [2]): 97 percentage of untreated control (UTC); HSL mRNA (HSL; [2]): 89 percentage of untreated control (UTC); GLUT4 mRNA (Glut4; [2]): 73 percentage of untreated control (UTC); PPAR gamma mRNA (PPARγ; [2]): 99 percentage of untreated control (UTC)
340343 (antisense ACAGGAGUCUGAGCAUUUGA; all 2'-MOE, all phosphorothioate, methylation of C and T or U not given here) [compound 340343] | 35 percentage of untreated control (UTC) | 60 percentage of untreated control (UTC) | 46 percentage of untreated control (UTC) | 33 percentage of untreated control (UTC) | 59 percentage of untreated control (UTC) | 
344616 (AGAGGUCGACCGUGUAAUGUGC; anti-miR; all 2'-MOE, all phosphorothioate, methylation of C and T or U not given here) [compound 344616] | 32 percentage of untreated control (UTC) | 26 percentage of untreated control (UTC) | 23 percentage of untreated control (UTC) | 2 percentage of untreated control (UTC) | 36 percentage of untreated control (UTC) | 
341797 (antisense ACAAGUGCCUUCACUGCAGU; all 2'-MOE, all phosphorothioate, methylation of C and T or U not given here) [compound 341797] | 20 percentage of untreated control (UTC) | 45 percentage of untreated control (UTC) | 29 percentage of untreated control (UTC) | 17 percentage of untreated control (UTC) | 50 percentage of untreated control (UTC) | 
328135 (eA*e[5mC]*e[5mC]*eG*eA*eA*e[5mC]*eA*eA*eA*eG*eT*e[5mC]*eT*eG*eA*e[5mC]*eA*eG*eG*eA; anti-miR) [compound 328135] | 29 percentage of untreated control (UTC) | 34 percentage of untreated control (UTC) | 20 percentage of untreated control (UTC) | 19 percentage of untreated control (UTC) | 33 percentage of untreated control (UTC) | TG (triglyceride accumulation) (adipocytes; [4]): 63.6 percentage of control; AP2 mRNA (aP2; [4]): 80.6 percentage of control; HSL mRNA (HSL; [4]): 76.7 percentage of control; GLUT4 mRNA (Glut4; [4]): 90.3 percentage of control; PPAR gamma mRNA (PPARγ; [4]): 70.0 percentage of control
346913 (AGAAAGGCAGCAGGUCGUAUAG; all 2'-MOE, all phosphorothioate, methylation of C and T or U not given here) [compound 346913] | 63 percentage of untreated control (UTC) | 66 percentage of untreated control (UTC) | 58 percentage of untreated control (UTC) | 40 percentage of untreated control (UTC) | 59 percentage of untreated control (UTC) | 
348124 (CACAAAUUCGGUUCUACAGGGUA; anti-miR; all 2'-MOE, all phosphorothioate, methylation of C and T or U not given here) [compound 348124] | 53 percentage of untreated control (UTC) | 59 percentage of untreated control (UTC) | 43 percentage of untreated control (UTC) | 41 percentage of untreated control (UTC) | 63 percentage of untreated control (UTC) | 
346689 (CAUCAUUACCAGGCAGUAUUAGAG; all 2'-MOE, all phosphorothioate, methylation of C and T or U not given here) [compound 346689] | 59 percentage of untreated control (UTC) | 79 percentage of untreated control (UTC) | 63 percentage of untreated control (UTC) | 45 percentage of untreated control (UTC) | 64 percentage of untreated control (UTC) | 
